Test results from US6737383B1, “Herbicidal oxadiazolidines” (priority 1999, dated 2004).

Experiments:
rape = test: Test B pre/postemergence rape; assay type: in vivo, Brassica napus
In short: (§1)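 Herbicidal effect was estimated by eye on a ten-point control scale after plants spent twelve to sixteen days in a greenhouse following soil or foliar treatment. Foliar sprays targeted plants at one to four leaves; all doses were formulated in a non-phytotoxic solvent with surfactant.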

wheat = test: Test B pre/postemergence wheat; assay type: in vivo, Triticum aestivum; settings: for Plant response rating, Wheat: Rate 250 g/ha
In short: as §1

duck salad = test: Test B flood test duck salad; assay type: in vivo, Heteranthera limosa
In short: (§2)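 Read-out is a visual response score from 0 (no effect) to 10 (complete control), assigned by comparison with untreated controls. Treatment was applied at the 2-leaf stage, and plants stayed in the greenhouse for twelve to sixteen days before scoring.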

pigweed = test: Test B pre/postemergence pigweed; assay type: in vivo, Amaranthus retroflexus
In short: as §1

soybean = test: Test B pre/postemergence soybean; assay type: in vivo, Glycine max
In short: as §1

smallflower flatsedge = test: Test B flood test smallflower flatsedge; assay type: in vivo, Cyperus difformis
In short: as §2

giant foxtail = test: Test B pre/postemergence giant foxtail; assay type: in vivo, Setaria faberii
In short: as §1

corn = test: Test B pre/postemergence corn; assay type: in vivo, Zea mays
In short: as §1

morningglory = test: Test B pre/postemergence morningglory; assay type: in vivo, Ipomoea hederacea
In short: as §1

purple nutsedge = test: Test B pre/postemergence purple nutsedge; assay type: in vivo, Cyperus rotundus
In short: as §1

rice = test: Test B flood test rice; assay type: in vivo, Oryza sativa
In short: as §2

velvetleaf = test: Test B pre/postemergence velvetleaf; assay type: in vivo, Abutilon theophrasti; settings: for Plant response rating, Velvetleaf: Rate 250 g/ha
In short: as §1

cocklebur = test: Test B pre/postemergence cocklebur; assay type: in vivo, Xanthium strumarium
In short: as §1

crabgrass = test: Test B pre/postemergence crabgrass; assay type: in vivo, Digitaria sanguinalis
In short: as §1

sugar beet = test: Test B pre/postemergence sugar beet; assay type: in vivo, Beta vulgaris; settings: for Plant response rating, Sugarbeets: Rate 250 g/ha
In short: as §1

blackgrass = test: Test B pre/postemergence blackgrass; assay type: in vivo, Alopecurus myosuroides
In short: as §1

[1] = Postemergence, Rate 125 g/ha, scale of 0 to 10 where 0 is no effect and 10 is complete control
[2] = Postemergence, Rate 250 g/ha, scale 0 to 10, 0 no effect, 10 complete control
[3] = Preemergence, Rate 62 g/ha, scale 0 to 10 (0 no effect, 10 complete control)
[4] = Preemergence, Rate 125 g/ha, scale 0 to 10 (0 no effect, 10 complete control)
[5] = Preemergence, Rate 250 g/ha, scale of 0 to 10 where 0 is no effect and 10 is complete control
[6] = Preemergence, Rate 500 g/ha, scale 0 to 10 (0 no effect, 10 complete control)
[7] = Rate 62 g/ha, Postemergence, scale of 0 to 10 where 0 is no effect and 10 is complete control
[8] = Rate 500 g/ha, Postemergence, scale 0 to 10, 0 no effect, 10 complete control
[9] = Preemergence, Rate 125 g/ha, 0 is no effect, 10 is complete control
[10] = Preemergence, scale of 0 to 10 where 0 is no effect and 10 is complete control
[11] = Postemergence, scale 0 to 10, 0 is no effect, 10 is complete control
[12] = Postemergence (flood test species), Rate 125 g/ha, scale of 0 to 10 where 0 is no effect and 10 is complete control
[13] = Rate 62 g/ha, Postemergence section, flood test species, scale of 0 to 10 where 0 is no effect and 10 is complete control
[14] = Rate 500 g/ha, listed under Postemergence (flood test species), scale 0 to 10, 0 no effect, 10 complete control
[15] = Rate 250 g/ha, Postemergence, scale 0 to 10, 0 is no effect, 10 is complete control
[16] = Rate 250 g/ha, Postemergence (flood test), scale 0 to 10, 0 is no effect, 10 is complete control

## CC(C)N(C(=O)n1oc(=O)n(C2CCCCC2)c1=O)c1ccccc1 [Compound 112]
rape; [1]
  Rape plant response rating: 2
rape; [2]
  Rape plant response rating: 3
rape; [3]
  Rape plant response rating: 0
rape; [4]
  Plant response rating, Rape: 0
rape; [5]
  Plant response rating, Rape: 0
rape; [6]
  Rape plant response rating: 5
rape; [7]
  Rape plant response rating: 2
rape; [8]
  Rape plant response rating: 4
wheat; [1]
  Wheat plant response rating: 0
wheat; [3]
  Wheat plant response rating: 0
wheat; [9]
  Wheat plant response rating (0 to 10 scale): 0
wheat; [10]
  Plant response rating, Wheat: 0
wheat; [6]
  Wheat plant response rating: 0
wheat; [7]
  Wheat plant response rating: 0
wheat; [11]
  Plant response rating, Wheat: 0
wheat; [8]
  Wheat plant response rating: 0
Duck salad; [12]
  Ducksalad plant response rating: 0
Duck salad; [13]
  Ducksalad plant response rating: 0
Duck salad; [14]
  Ducksalad plant response rating: 0
Duck salad; flood test, listed under Postemergence, Rate 250 g/ha, scale 0 to 10, 0 no effect, 10 complete control
  Ducksalad plant response rating: 0
pigweed; [1]
  Redroot pigweed plant response rating: 3
pigweed; [3]
  Redroot pigweed plant response rating: 0
pigweed; [4]
  Plant response rating, Redroot pigweed: 2
pigweed; [5]
  Plant response rating, Redroot pigweed: 7
pigweed; [6]
  Redroot pigweed plant response rating: 9
pigweed; [7]
  Redroot pigweed plant response rating: 2
pigweed; [15]
  Plant response rating, Redroot pigweed: 5
pigweed; [8]
  Redroot pigweed plant response rating: 5
soybean; [1]
  Soybean plant response rating: 4
soybean; [3]
  Soybean plant response rating: 0
soybean; [4]
  Plant response rating, Soybean: 0
soybean; [5]
  Plant response rating, Soybean: 0
soybean; [6]
  Soybean plant response rating: 4
soybean; [7]
  Soybean plant response rating: 4
soybean; [15]
  Plant response rating, Soybean: 4
soybean; [8]
  Soybean plant response rating: 7
Smallflower flatsedge; [12]
  S. Flatsedge plant response rating: 0
Smallflower flatsedge; [13]
  S. Flatsedge plant response rating: 0
Smallflower flatsedge; [16]
  Plant response rating, S. Flatsedge: 0
Smallflower flatsedge; [14]
  S. Flatsedge plant response rating: 0
Giant foxtail; [1]
  Giant foxtail plant response rating: 7
Giant foxtail; [2]
  Giant foxtail plant response rating: 7
Giant foxtail; [3]
  Giant foxtail plant response rating: 8
Giant foxtail; [4]
  Plant response rating, Giant foxtail: 10
Giant foxtail; [5]
  Plant response rating, Giant foxtail: 10
Giant foxtail; [6]
  Giant foxtail plant response rating: 10
Giant foxtail; [7]
  Giant foxtail plant response rating: 2
Giant foxtail; [8]
  Giant foxtail plant response rating: 8
corn; [1]
  Corn plant response rating: 0
corn; [2]
  Corn plant response rating: 0
corn; [3]
  Corn plant response rating: 0
corn; [4]
  Plant response rating, Corn: 0
corn; [5]
  Plant response rating, Corn: 0
corn; [6]
  Corn plant response rating: 2
corn; [7]
  Corn plant response rating: 0
corn; [8]
  Corn plant response rating: 0
morningglory; [1]
  Morningglory plant response rating: 10
morningglory; [2]
  Morningglory plant response rating: 10
morningglory; [3]
  Morningglory plant response rating: 0
morningglory; [4]
  Plant response rating, Morningglory: 2
morningglory; [5]
  Plant response rating, Morningglory: 2
morningglory; [6]
  Morningglory plant response rating: 2
morningglory; [7]
  Morningglory plant response rating: 8
morningglory; [8]
  Morningglory plant response rating: 10
Purple nutsedge; [1]
  Nutsedge plant response rating: 0
Purple nutsedge; [2]
  Nutsedge plant response rating: 0
Purple nutsedge; [3]
  Nutsedge plant response rating: 0
Purple nutsedge; [4]
  Plant response rating, Nutsedge: 0
Purple nutsedge; [5]
  Plant response rating, Nutsedge: 0
Purple nutsedge; [6]
  Nutsedge plant response rating: 0
Purple nutsedge; [7]
  Nutsedge plant response rating: 0
Purple nutsedge; [8]
  Nutsedge plant response rating: 0
rice; [12]
  Rice plant response rating: 0
rice; [13]
  Rice plant response rating: 0
rice; [16]
  Plant response rating, Rice: 0
rice; [14]
  Rice plant response rating: 0
velvetleaf; [1]
  Velvetleaf plant response rating: 0
velvetleaf; [3]
  Velvetleaf plant response rating: 0
velvetleaf; [9]
  Velvetleaf plant response rating (0 to 10 scale): 2
velvetleaf; [10]
  Plant response rating, Velvetleaf: 4
velvetleaf; [6]
  Velvetleaf plant response rating: 5
velvetleaf; [7]
  Velvetleaf plant response rating: 0
velvetleaf; [11]
  Plant response rating, Velvetleaf: 1
velvetleaf; [8]
  Velvetleaf plant response rating: 1
cocklebur; [1]
  Cocklebur plant response rating: 1
cocklebur; [2]
  Cocklebur plant response rating: 2
cocklebur; [3]
  Cocklebur plant response rating: 0
cocklebur; [4]
  Plant response rating, Cocklebur: 0
cocklebur; [5]
  Plant response rating, Cocklebur: 0
cocklebur; [6]
  Cocklebur plant response rating: 0
cocklebur; [7]
  Cocklebur plant response rating: 0
cocklebur; [8]
  Cocklebur plant response rating: 2
crabgrass; [1]
  Crabgrass plant response rating: 4
crabgrass; [2]
  Crabgrass plant response rating: 4
crabgrass; [3]
  Crabgrass plant response rating: 5
crabgrass; [4]
  Plant response rating, Crabgrass: 6
crabgrass; [5]
  Plant response rating, Crabgrass: 10
crabgrass; [6]
  Crabgrass plant response rating: 10
crabgrass; [7]
  Crabgrass plant response rating: 0
crabgrass; [8]
  Crabgrass plant response rating: 9
Sugar beet; [1]
  Sugarbeets plant response rating: 2
Sugar beet; [3]
  Sugarbeets plant response rating: 0
Sugar beet; [9]
  Sugarbeets plant response rating (0 to 10 scale): 0
Sugar beet; [10]
  Plant response rating, Sugarbeets: 0
Sugar beet; [6]
  Sugarbeets plant response rating: 0
Sugar beet; [7]
  Sugarbeets plant response rating: 2
Sugar beet; [11]
  Plant response rating, Sugarbeets: 3
Sugar beet; [8]
  Sugarbeets plant response rating: 3
blackgrass; [1]
  Blackgrass plant response rating: 4
blackgrass; [2]
  Blackgrass plant response rating: 5
blackgrass; [3]
  Blackgrass plant response rating: 0
blackgrass; [4]
  Plant response rating, Blackgrass: 0
blackgrass; [5]
  Plant response rating, Blackgrass: 2
blackgrass; [6]
  Blackgrass plant response rating: 5
blackgrass; [7]
  Blackgrass plant response rating: 0
blackgrass; [8]
  Blackgrass plant response rating: 7
